Reference: patent US20250042848A1, “DEUTERATED FUNCTIONALIZED DERIVATIVES OF alpha-ALANINE, IN [sequence] FOR THE TREATMENT OF NEUROLOGICAL DISEASES” (UNIWERSYTET JAGIELLONSKI, priority 2021, published 2025)

Legend:
[1] = test system: oxaliplatin-induced mechanical allodynia in mice; experiment: Oxaliplatin (OXPT)-induced peripheral neuropathy model, von Frey test; format: in vivo
Procedure: The reaction was observed before administration and 3 hours (early phase) and 7 days (late phase) after administration of OXPT.
All tests/models were performed based on procedures described in the specialist literature: formalin test (Beirith et al. Eur. J. Pharmacol. 1998, 345, 233-245), capsaicin-induced pain model (Mogilski et al. Pharmacol. Biochem. Behav. 2015, 133, 99-110), oxaliplatin-induced neuropathic pain model-von Frey's test (Sałat et al. Pharmacol. Biochem. Behav. 2014, 122, 173-181), streptozotocin-induced diabetic neuropathic pain model-von Frey's test (Sałat et al. Neuropharmacology 2017, 125, 181-188; Tanabe et al. J. Pharmacol. Sci. 2008, 107, 213-220). The test group consisted of 8-10 animals.

[2] = test system: motor coordination of mice; experiment: Rotarod test (motor coordination, acute neurotoxicity); format: in vivo; settings: in mg/kg
Procedure: Initial screening was performed on groups of 4 mice. The mean effective dose (ED50) in a given test and the neurotoxic dose in the rotarod test (TD50) were estimated on the basis of the results obtained on 3-4 groups of animals consisting of 6 animals.
The effect of the tested compounds on motor coordination was assessed in the rotarod test (May Commat, RR 0711 RotaRod, Turkey). The day before the actual experiment, the mice were trained on a rod rotating at 10 revolutions per minute (rpm) for 3 minutes. The experiment was performed 30 minutes and 2 hours after administration of the compounds. The motor coordination of the animals was tested at the speed of the rotating rod: 10 rpm for 60 seconds. The measure of neurotoxicity was the inability to stay on the rod for a given time (Łuszczki, J.J. et al. Eur. Neuropsychopharmacol. 2005, 6, 609-616).
The ED50 (effective dose) and TD50 (toxic dose) values along with the corresponding 95% confidence limits were calculated based on the Litchfield and Wilcoxon method (Litchfield, J.T.; Wilcoxon, F. J. Pharmacol. Exp. Ther. 1949, 96, 99-113). To perform a statistical evaluation of the results in the scPTZ test, one-way ANOVA variance analysis followed by Dunnett's post hoc test were used. The values were considered statistically significant if p<0.05.

[3] = 30 mg/kg, seven days after OXPT (late phase)
[4] = 30 mg/kg, three hours after OXPT (early phase)
[5] = 60 mg/kg, seven days after OXPT (late phase)
[6] = 60 mg/kg, three hours after OXPT (early phase)
[7] = 90 mg/kg, seven days after OXPT (late phase)
[8] = 90 mg/kg, three hours after OXPT (early phase)

SMILES: [2H]C1([2H])C(=O)N([C@H](C)C(=O)NCc2ccccc2)C(=O)C1([2H])[2H] [d4-(R)-1, (R)-N-benzyl-2-(2,5-dioxopyrrolidin-1-yl-3,3,4,4-d4) propanamide]
- pain threshold (von Frey) [1, 3]: 6.38 ± 0.50 g
- pain threshold, % of baseline [1, 3]: 123.9%
- pain threshold (von Frey) [1, 4]: 5.73 ± 0.40 g
- pain threshold, % of baseline [1, 4]: 111.3%
- pain threshold (von Frey) [1, 5]: 7.34 ± 0.42 g
- pain threshold, % of baseline [1, 5]: 119.2%
- pain threshold (von Frey) [1, 6]: 5.33 ± 0.427 g
- pain threshold, % of baseline [1, 6]: 86.5%
- pain threshold (von Frey) [1, 7]: 7.04 ± 0.31 g
- pain threshold, % of baseline [1, 7]: 110.5%
- pain threshold (von Frey) [1, 8]: 7.23 ± 0.42 g
- pain threshold, % of baseline [1, 8]: 113.5%
- TD50 Rotarod ([2]; 0.5 h after i.p. administration): 176.7
- TD50 Rotarod ([2]; 2.0 h after i.p. administration): >300
